Measured values from patent US5877320A, “Process for the preparation of organotin compounds useful as cytotoxic agents” (priority 1995, dated 1999).

Tests used:
IGROV = test: In-vitro cytotoxicity [ID50] against IGROV (ovarian cancer); format: cell-based, human; conditions: NCI-USA protocol
Excerpt: (§1) The in-vitro cytotoxicity determined in terms of inhibition dose [ID50 ] of compounds having the formulae 8-11 prepared by the process of the present invention against […] different human cancer cell lines namely MCF7, EVSAT (Breast Cancer), WIDR (Colon Cancer), IGROV (Ovarian Cancer), M19MEL (Melanoma), A498 (Renal Cancer) and H226 (Nonsmall cell lung Cancer) have been measured following NCI-USA protocol [M. R. Boyd, "Status of the NCI preclinical antitumour drug discovery screen. Principles & practice of oncology 3, pp. 1-12 (1989)] alongwith the latest ID50 values of inorganic cancer drugs are presented in Table 1.

EVSAT = test: In-vitro cytotoxicity [ID50] against EVSAT (breast cancer); format: cell-based, human; conditions: NCI-USA protocol
Excerpt: as §1

M19MEL = test: In-vitro cytotoxicity [ID50] against M19MEL (melanoma); format: cell-based, human; conditions: NCI-USA protocol
Excerpt: as §1

A498 = test: In-vitro cytotoxicity [ID50] against A498 (renal cancer); format: cell-based, human; conditions: NCI-USA protocol
Excerpt: as §1

H226 = test: In-vitro cytotoxicity [ID50] against H226 (nonsmall cell lung cancer); format: cell-based, human; conditions: NCI-USA protocol
Excerpt: as §1

WIDR = test: In-vitro cytotoxicity [ID50] against WIDR (colon cancer); format: cell-based, human; conditions: NCI-USA protocol
Excerpt: as §1

MCF7 = test: In-vitro cytotoxicity [ID50] against MCF7 (breast cancer); format: cell-based, human; conditions: NCI-USA protocol
Excerpt: as §1

[1] = tested on: P388 lymphocytic leukemia; conditions: in words; literature; cited from earlier work

N.N.O=C([O-])C1(C(=O)[O-])CCC1.[Pt+2] [Carboplatin, reference compound]
Anti-tumour activity [ID50] (IGROV): 2.4 µg/mL
Anti-tumour activity [ID50] (EVSAT): 4.5 µg/mL
Anti-tumour activity [ID50] (M19MEL): 5.5 µg/mL
Anti-tumour activity [ID50] (A498): 18 µg/mL
Anti-tumour activity [ID50] (H226): 25 µg/mL
Anti-tumour activity [ID50] (WIDR): 3.5 µg/mL
Anti-tumour activity [ID50] (MCF7): 10.5 µg/mL

N.N.[Cl][Pt][Cl] [cis-platin, reference compound]
Anti-tumour activity [ID50] (IGROV): 0.227 µg/mL
Anti-tumour activity [ID50] (EVSAT): 0.92 µg/mL
Anti-tumour activity [ID50] (M19MEL): 0.78 µg/mL
Anti-tumour activity [ID50] (A498): 1.2 µg/mL
Anti-tumour activity [ID50] (H226): 3.158 µg/mL
Anti-tumour activity [ID50] (WIDR): 1.55 µg/mL
Anti-tumour activity [ID50] (MCF7): 1.4 µg/mL

[Cl][Sn]([Cl])([c]1ccccc1)[CH]1CCCCC1 [cyclohexyl-(phenyl)tindichloride]
activity against P388 in mice [1]: inhibition of P-388 in mice

bipyridine complex of dibenzyltindichloride [compound 11]
Anti-tumour activity [ID50] (IGROV): 0.08 µg/mL
Anti-tumour activity [ID50] (EVSAT): 0.15 µg/mL
Anti-tumour activity [ID50] (M19MEL): 0.32 µg/mL
Anti-tumour activity [ID50] (A498): 0.16 µg/mL
Anti-tumour activity [ID50] (H226): 0.35 µg/mL
Anti-tumour activity [ID50] (WIDR): 0.8 µg/mL
Anti-tumour activity [ID50] (MCF7): 0.12 µg/mL

bis(imidazole) complex of dibenzyltindichloride [compound 10]
Anti-tumour activity [ID50] (IGROV): 3.2 µg/mL
Anti-tumour activity [ID50] (EVSAT): 0.4 µg/mL
Anti-tumour activity [ID50] (M19MEL): 1.5 µg/mL
Anti-tumour activity [ID50] (A498): 1 µg/mL
Anti-tumour activity [ID50] (H226): 1.3 µg/mL
Anti-tumour activity [ID50] (WIDR): 3.2 µg/mL
Anti-tumour activity [ID50] (MCF7): 0.7 µg/mL

bis(indole) complex of dibenzyltindichloride [compound 8]
Anti-tumour activity [ID50] (IGROV): 0.11 µg/mL
Anti-tumour activity [ID50] (EVSAT): 0.15 µg/mL
Anti-tumour activity [ID50] (M19MEL): 0.4 µg/mL
Anti-tumour activity [ID50] (A498): 0.2 µg/mL
Anti-tumour activity [ID50] (H226): 0.2 µg/mL
Anti-tumour activity [ID50] (WIDR): 0.85 µg/mL
Anti-tumour activity [ID50] (MCF7): 0.15 µg/mL

bis(thiophene) complex of dibenzyltindichloride [compound 9]
Anti-tumour activity [ID50] (IGROV): 0.05 µg/mL
Anti-tumour activity [ID50] (EVSAT): 0.13 µg/mL
Anti-tumour activity [ID50] (M19MEL): 0.25 µg/mL
Anti-tumour activity [ID50] (A498): 0.11 µg/mL
Anti-tumour activity [ID50] (H226): 0.4 µg/mL
Anti-tumour activity [ID50] (WIDR): 0.55 µg/mL
Anti-tumour activity [ID50] (MCF7): 0.068 µg/mL

dibenzyl(phenanthroline)-tindichloride
activity against P388 in mice [1]: inactive
